Measurements from patent US20090286731A1, “METHODS AND COMPOSITIONS FOR THE TREATMENT OF XEROSTOMIA” (THE REGENTS OF THE UNIVERSITY OF COLORADO, A BODY CORPORATE, priority 2006, published 2009).

Key:
ATM and Chk1 = assay: Phosphorylation of ATM, Chk1 and p53 in myr-Akt1 primary salivary acinar cells (immunoblot); assay type: cell-based, mouse; conditions: with or without siRNA that targeted MDM2
Procedure: In FIG. 9A, primary salivary acinar cells isolated from myr-Akt1 mice were transfected with various control or MDM2 specific siRNA molecules. Cell lysates were collected 24-72 hrs after transfection and immunoblotted with an anti-MDM2 antibody (top panel) or anti-p53 (DO12, middle panel). […] In lanes 6 and 7, primary salivary acinar cells isolated from myr-Akt1 mice were transfected with siRNA molecules targeting MDM2 for 48 hrs.
Immunoblotting. Tissues were lysed in RIPA (150 mM NaCl, 50 mM Tris, pH 7.4, 2 mM EGTA, 1% Triton X-100, 0.25% sodium deoxycholate) supplemented with protease inhibitor cocktail (Sigma Chemical Company, St. Louis, Mo.), 100 μg/ml phenylmethylsulfonyl fluoride, and 100 U/ml aprotinin (Pierce Chemical Company, Rockford, Ill.). […] Primary salivary acinar cells were lysed in JNK lysis buffer (25 mM HEPES, pH 7.5, 20 mM β-glycerophosphate, 0.1 mM sodium orthovandadate, 0.1% Triton X-100, 0.3M NaCl, 1.5 mM MgCl2, 0.2 mM EDTA, 0.5 mM dithiothreitol, and 10 mM NaF) supplemented with aprotinin (4 μg/ml), Prefebloc (0.5 mg/ml), and leupeptin (2 μg/ml) (Pierce Chemical Company) and 1 mM sodium orthovandate, and the lysates clarified by centrifugation at 4° C. for 30 min at 13,000 rpm in a refrigerated Savant microcentrifuge (Anderson et al., 1999). Protein concentrations were determined using the BCA Protein Assay Kit (Pierce Chemical Company). […]

[1] = test system: primary salivary acinar cells; assay: Induction of apoptosis in primary salivary acinar cells (caspase-3 activity); assay type: cell-based, mouse
Procedure: In FIG. 3A, all adherent and nonadherent primary parotid acinar cells were collected and lysed in caspase lysis buffer (BioMol QuantiZyme Colormetric Assay kit) and 15 μg of cell lysate was used to analyze the level of enzyme activity for each sample in quadruplicate. The ability of the enzyme to cleave a chromogenic substrate was read at A405 every ten minutes for seven hours and the -fold increase relative to untreated parotid cells is plotted. […] In FIG. 3B, primary submandibular acinar cells were collected in caspase lysis buffer as described above and the -fold increase relative to untreated submandibular cells is plotted. […] Graphs of caspase activity represent all data points collected from five independent experiments and Student's t-test p values were calculated using Microsoft Excel comparing two different treatment groups.
Generation and cultivation of primary salivary acinar cells. Primary salivary acinar cells were prepared from 4-5 week old female FVB or myr-Akt1 transgenic mice. […]
Induction and quantitation of apoptosis. […] Activation of caspase 3 was quantitated using BioMol QuantiZyme Colormetric Assay kit (Plymouth Meeting, Pa.). […] Caspase-3 activity in 15 μg of cellular lysate was measured by the cleavage of Ac-DEVD-pNA substrate and absorbance at A405 was quantitated in a microtiter plate reader (Molecular Devices) at 10-minute intervals for 7 hrs.

Akt = assay: IGF1 activation of endogenous Akt in the salivary gland after tail vein injection (anti-phospho-Akt immunoblot); assay type: in vivo, mice; conditions: for activation of Akt (immunoblotting with anti-phospho-Akt (threonine^473) antibody): salivary gland
Procedure: (§1) FIGS. 12A-C—IGF1 activation of Akt in vivo and rescue of salivary flow rates 3 days after single γ-irradiation exposure. (FIG. 12A) FVB mice received an injection of 1, 5, 10, or 50 ng/ml recombinant IGF1. Tissue lysates were collected for immunoblotting five minutes after injection and membranes were probed for activation of Akt using a phosphorylation specific antibody. (FIG. 12B) FVB mice received an injection of 5 μg/ml recombinant IGF1 and tissue lysates were collected for immunoblotting 0, 5, 10 or 30 min after injection. Membranes were probed for activated Akt as described in FIG. 12A. Membranes were stripped and re-probed with a total antibody against ERK1/2 as a loading control in both A and B. (FIG. 12C) Four-week old female FVB mice were injected with 5 μg/ml recombinant IGF1 immediately prior to treatment with 1Gy γ-irradiation. Total saliva was collected following carbachol injection as described in FIG. 11 three days after radiation exposure. For Untreated, N=10; for IGF1, N=5; for 1 Gy, N=10, and for 1 Gy+IGF1, N=7. Statistical analysis was performed using Student's t-test in Microsoft Excel.
(§2) γ-irradiation treatment. For in vivo experiments, four-week old female FVB and myr-Akt1 transgenic mice were anesthetized with avertin (0.4-0.6 mg/gm, IP) and the head and neck region was exposed to ionizing radiation using a RS 2000 Biological Irradiator (Humphries et al., 2006). The rest of the body was shielded with 6 mm lead foil and sheets to avoid systemic effects of γ-irradiation. […] For IGF1 injections, mice were anesthetized with avertin and tails were warmed in water to allow dilation of blood vessels. Mice were injected with a total volume of 100 μl of IGF1 diluted in sterile PBS and immediately placed into the radiation chamber.
Stimulation of cells with both IGF1 and EGF produced a synergistic activation of Akt and suppression of apoptosis (Limesand et al., 2003). […] Mice were injected with 1, 5, 10, or 50 μg recombinant IGF1 and the activation of Akt was examined in the salivary gland five minutes after injection.
The inventors also determined the kinetics with which Akt was activated following injection of mice with 5 μg IGF1. Salivary glands were removed at 5, 10, and 30 minutes post-injection, tissue lysates prepared, and the activation of Akt examined by immunoblotting with anti-phospho-Akt ([…]) antibody (FIG. 12B). […] Future studies are needed to determine whether Akt remains activated for longer periods of time.

salivary acinar cells [2] = conditions: cited from earlier work
salivary acinar cells [3] = assay: Activated caspase-3 staining of irradiated salivary glands (apoptotic cells); assay type: in vivo; conditions: pretreatment of mice with IGF1
Procedure: Activated caspase-3 staining. Salivary glands were removed at various time points post-irradiation, fixed in 10% neutral buffered formalin, and then embedded in paraffin. Slides were stained for activated caspase-3 (Cell Signaling #9661; Beverly, Mass.) as previously described (Humphries et al., 2006). Cell counts were performed on a minimum of five fields of view per slide from three mice (total cells counted ranged from 1800-2500 per mouse).

FVB mice = assay: Salivary flow rate after head and neck γ-irradiation (carbachol-stimulated saliva collection); assay type: in vivo
Procedure: FIG. 11—Rescue of salivary flow rates 3 days after single γ-irradiation exposure in Myr-Akt1 mice. Four-week old female FVB and myr-Akt1 mice were exposed to 1, 2, or 5Gy γ-irradiation. Three days after irradiation total saliva was collected (over a five-minute period) following carbachol injection. Statistical analysis was performed using Student's t-test in Microsoft Excel.
as §1
FIG. 13—Rescue of salivary flow rates 30 days after single γ-irradiation exposure by Myr-Akt1 or injection with IGF1. Four-week old female FVB, myr-Akt1 and FVB mice injected with 5 μg/ml recombinant IGF1 were exposed to 1Gy γ-irradiation. IGF1 injections were performed immediately prior to radiation exposure as described in FIGS. 12A-C. Thirty days after exposure to γ-irradiation total saliva was collected following carbachol injection as described in FIG. 11. For unirradiated, untreated, N=8; for unirradiated myr-Akt1, N=8; for unirradiated IGF1 injected, N=8; for 1 Gy irradiated FVB, N=8, for myr-Akt1 riiadiated with 1 Gy, N=6, for FVB that received IGF1 and I Gy, N=6. Statistical analysis was performed using multiple comparison testing in the SAS system.
as §2, with “Mice were injected with a total volume of 100 μl of IGF1 diluted in sterile PBS and immediately placed into the radiation chamber.” left out

**Q.** For COc1cc([C@@H]2c3cc4c(cc3[C@@H](O[C@@H]3O[C@@H]5CO[C@@H](C)O[C@H]5[C@H](O)[C@H]3O)[C@H]3COC(=O)[C@H]23)OCO4)cc(OC)c1O [etoposide], which “phosphorylation of ATM at serine^1981” value (ATM and Chk1) is on record?
**A.** resulted in the phosphorylation of ATM

**Q.** What about the “apoptosis of salivary acinar cells” value ([1]; cells from FVB control mice) of the same compound?
**A.** induce apoptosis

**Q.** And the “apoptosis (caspase-3 activation)” value ([1]; myr-Akt1 salivary acinar cells, 18 hrs after treatment)?
**A.** did induce some apoptosis

**Q.** With “IGF1: recombinant IGF1, activator of the Akt pathway, injected into the tail vein of mice” as the compound, how does the “phosphorylated Akt thirty minutes following administration” value (Akt; 5 μg IGF1, salivary gland) read?
**A.** could still be detected

**Q.** What about the “time of maximal activation of Akt after injection” value (Akt; 5 μg IGF1, salivary glands removed at 5, 10 and 30 minutes) of the same compound?
**A.** five

**Q.** What about the “activation of Akt (immunoblotting with anti-phospho-Akt (threonine^473) antibody)” value (Akt; five minutes after injection of 1 μg and 5 μg IGF1) of the same compound?
**A.** results in the activation of Akt

**Q.** And the “activation of Akt (immunoblotting with anti-phospho-Akt (threonine^473) antibody)” value (Akt; five minutes after injection of 10 and 50 μg IGF1 per mouse)?
**A.** did not result in the activation of Akt

**Q.** And the “activation of Akt” value (salivary acinar cells [2])?
**A.** induces activation of Akt

**Q.** What about the “apoptosis induced by etoposide” value (salivary acinar cells [2]) of the same compound?
**A.** suppresses apoptosis

**Q.** What about the “number of apoptotic cells after irradiation” value (salivary acinar cells [3]) of the same compound?
**A.** significantly decreases the number of apoptotic cells

**Q.** And the “salivary flow rate, IGF1 alone” value (FVB mice; 5 μg IGF1, unirradiated mice, three days following injection)?
**A.** had no effect

**Q.** What about the “salivary flow rate versus unirradiated FVB control mice” value (FVB mice; IGF1 injected, unirradiated, thirty-day time point) of the same compound?
**A.** not a statistical difference

**Q.** And the “irradiation-induced reduction in salivary flow rate” value (FVB mice; single dose of 5 μg recombinant IGF1 immediately prior to 1 Gy, three days after exposure)?
**A.** completely suppressed

**Q.** And the “decrease in salivary flow rate compared to controls” value (FVB mice; single dose of IGF1 prior to 1 Gy γ-irradiation, 30 days after exposure)?
**A.** no decrease in salivary flow rate
